What follows are compounds tested against T1, TLR7/NFKb HEK cells (Homo sapiens, UniProt Q9NYK1) (assay: HEK Cell Assay (TLR7/NFKb reporter, Steady-Glo luciferase readout)). Conditions: 30 min compound preincubation, then R*48 agonist for 5 hours, read-out: Potency.
T1 construct: expressed in transfected cells; host or cells: HEK cells (TLR7/NFKb reporter line)
T1 sequence (Q9NYK1 27-1049): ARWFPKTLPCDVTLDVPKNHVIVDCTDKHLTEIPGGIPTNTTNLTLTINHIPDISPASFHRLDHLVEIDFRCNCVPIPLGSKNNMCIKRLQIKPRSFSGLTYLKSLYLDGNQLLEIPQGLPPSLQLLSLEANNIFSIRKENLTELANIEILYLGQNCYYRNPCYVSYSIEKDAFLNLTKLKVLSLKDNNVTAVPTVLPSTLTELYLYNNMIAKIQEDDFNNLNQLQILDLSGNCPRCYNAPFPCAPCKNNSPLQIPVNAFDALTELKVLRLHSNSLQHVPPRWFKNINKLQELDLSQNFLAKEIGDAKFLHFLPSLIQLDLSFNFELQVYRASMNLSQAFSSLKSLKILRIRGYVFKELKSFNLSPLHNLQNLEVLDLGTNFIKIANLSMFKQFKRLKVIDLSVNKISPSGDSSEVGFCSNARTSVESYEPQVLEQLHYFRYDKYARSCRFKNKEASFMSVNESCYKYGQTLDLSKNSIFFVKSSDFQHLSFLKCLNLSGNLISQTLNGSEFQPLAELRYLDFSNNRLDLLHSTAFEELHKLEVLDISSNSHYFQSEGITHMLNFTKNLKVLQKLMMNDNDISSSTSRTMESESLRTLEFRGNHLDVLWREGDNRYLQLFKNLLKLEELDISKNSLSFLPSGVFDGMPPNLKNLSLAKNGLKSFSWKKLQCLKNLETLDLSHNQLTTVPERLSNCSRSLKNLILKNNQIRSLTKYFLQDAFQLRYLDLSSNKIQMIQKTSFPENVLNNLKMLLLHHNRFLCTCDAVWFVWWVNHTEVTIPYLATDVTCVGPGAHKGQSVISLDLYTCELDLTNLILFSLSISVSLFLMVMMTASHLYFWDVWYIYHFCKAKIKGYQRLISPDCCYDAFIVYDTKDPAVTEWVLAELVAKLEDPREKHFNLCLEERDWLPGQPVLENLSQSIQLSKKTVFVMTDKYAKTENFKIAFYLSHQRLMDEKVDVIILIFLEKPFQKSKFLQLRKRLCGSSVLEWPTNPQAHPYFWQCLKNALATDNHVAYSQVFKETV
Assay type: cell-based
Outline: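 Steady-Glo luminescence after 5 h stimulation with R*48 agonist, following 30 min compound preincubation. Assay run in HEK cells carrying a TLR7/NFKb luciferase reporter, plated at 5000 cells/well and grown 24 h at 37° C (10% CO2) before treatment.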
Work on `CCN(C)[C@@H](C)C(=O)N[C@@H]1C[C@H](C)CN(c2ccnc3nccnc23)C1` [Compound 101, (2S)-2-[ethyl(methyl)amino]-N-[(3R,5S)-5-methyl-1-[pyrido[2,3-b]pyrazin-8-yl]piperidin-3-yl]propanamide] yielded an IC50 of 1000 to 10000 nM. `CC(C(=O)N[C@@H]1C[C@H](C)CN(c2ccc(C#N)c3nccnc23)C1)N1CC(O)C1` (stereo partly shown) [Compound 271] gave an IC50 of less than 1000 nM. For `Cc1cc2c(N3C[C@@H](C)C[C@@H](NC(=O)CO)C3)ccnc2n1C` [Compound 13, N-((3R,5S)-1-(1,2-dimethyl-1H-pyrrolo[2,3-b]pyridin-4-yl)-5-methylpiperidin-3-yl)-2-hydroxyacetamide], the IC50 was greater than 10000 nM. `CC(C)(C)CC(=O)NCC1CCN(c2ccnc3nccnc23)CC1` [Compound 399, 3,3-Dimethyl-N-(1-pyrido[2,3-b]pyrazin-8-yl-piperidin-4-ylmethyl)-butyramide] showed an IC50 greater than 10000 nM. Work on `CC1CC(CN2CCN(C)CC2)CN(c2ccc(C(F)(F)F)c3ncccc23)C1` (single isomer, unassigned) [Compound 533, cis-5-[3-Methyl-5-(4-methyl-piperazin-1-ylmethyl)-piperidin-1-yl]-8-trifluoromethyl-quinoline] yielded an IC50 of less than 1000 nM. Compound `C[C@H]1C[C@@H](N2CC[C@@H](N)C2=O)CN(c2ccnc3nccnc23)C1` [Compound 42, (3R)-3-amino-1-[(3R,5S)-5-methyl-1-[pyrido[2,3-b]pyrazin-8-yl]piperidin-3-yl]pyrrolidin-2-one] has an IC50 greater than 10000 nM. With `CCC(C)C(=O)N[C@@H]1C[C@H](C)CN(c2ccc(C#N)c3nccnc23)C1` (single isomer, unassigned) [Compound 154] the IC50 was less than 1000 nM. For `C[C@H]1C[C@@H](NC2CCN(C)C2=O)CN(c2ccc(C(F)(F)F)c3ncccc23)C1` (single isomer, unassigned) [Compound 238], the IC50 was less than 1000 nM. `CCN(CC)CCNCC1CCN(c2ccnc3ccc(C(F)(F)F)cc23)CC1` [Compound 377, N,N-Diethyl-N′-[1-(6-trifluoromethyl-quinolin-4-yl)-piperidin-4-ylmethyl]-ethane-1,2-diamine] was tested, and the IC50 was 1000 to 10000 nM. For `CC(C)(C)CC(=O)N[C@H]1C[C@@H](C(F)(F)F)CN(c2ccnc3nccnc23)C1` (relative stereo) [Compound 86, cis-3,3-dimethyl-N-[1-[pyrido[2,3-b]pyrazin-8-yl]-5-(trifluoromethyl)piperidin-3-yl]butanamide], the IC50 was greater than 10000 nM. Work on `C[C@H]1C[C@@H](NC(=O)C2(N)COC2)CN(c2ccnc3nccnc23)C1` [Compound 128, 3-amino-N-[(3R,5S)-5-methyl-1-[pyrido[2,3-b]pyrazin-8-yl]piperidin-3-yl]oxetane-3-carboxamide] yielded an IC50 greater than 10000 nM. Compound `C[C@H]1C[C@@H](NC2CCN(C)C2=O)CN(c2ccc(Cl)c3ncccc23)C1` (single isomer, unassigned) [Compound 261] has an IC50 of less than 1000 nM. Work on `N#Cc1ccc(N2CCC(CNC(=O)CN3CCC3)CC2)c2cccnc12` [Compound 417, 2-Azetidin-1-yl-N-[1-(8-cyano-quinolin-5-yl)-piperidin-4-ylmethyl]-acetamide] yielded an IC50 of less than 1000 nM. `C[C@H]1C[C@@H](NC(=O)CN(C)C)CN(c2c(F)cc(C#N)c3nccnc23)C1` [Compound 347, N-[(3R,5S)-1-(8-cyano-6-fluoroquinoxalin-5-yl)-5-methylpiperidin-3-yl]-2-(dimethylamino)acetamide] gave an IC50 of 1000 to 10000 nM. `C[C@H]1C[C@@H](NC(=O)CC(C)(C)C)CN(c2ccc(C(F)(F)F)c3ncccc23)C1` [Compound 195, 3,3-dimethyl-N-[(3R,5S)-5-methyl-1-[8-(trifluoromethyl)quinolin-5-yl]piperidin-3-yl]butanamide] gave an IC50 of less than 1000 nM. In the case of `COc1ccc(N2C[C@@H](C)C[C@@H](NC(=O)CC(C)(C)C)C2)c2nccnc12` [Compound 202, N-[(3R,5S)-1-(8-methoxyquinoxalin-5-yl)-5-methylpiperidin-3-yl]-3,3-dimethylbutanamide], the IC50 is reported as 1000 to 10000 nM. In the case of `CCN(CC)CCNCC1CCN(c2ccc(C#N)c3ncccc23)CC1` [Compound 401, 5-{4-[(2-Diethylamino-ethylamino)-methyl]-piperidin-1-yl}-quinoline-8-carbonitrile], the IC50 is reported as 1000 to 10000 nM. For `CCN(CC)CCNCC1CCN(c2cc(C)nc3ccc(F)cc23)CC1` [Compound 374, N,N-diethyl-N′-[1-(6-fluoro-2-methyl-quinolin-4-yl)-piperidin-4-ylmethyl]-ethane-1,2-diamine], the IC50 was 1000 to 10000 nM. Work on `CN1CCC(CC(=O)NC2CN(c3ccc(C#N)c4nccnc34)CC(F)(F)C2)CC1` (racemic) [Compound 504, N-[1-(8-Cyano-quinoxalin-5-yl)-5,5-difluoro-piperidin-3-yl]-2-(1-methyl-piperidin-4-yl)-acetamide] yielded an IC50 of less than 1000 nM. `N#Cc1ccc(N2C[C@H](NC(=O)CC3CCC(F)(F)CC3)C[C@H](C(F)(F)F)C2)c2cccnc12` [Compound 584, N-[(3R,5S)-1-(8-Cyano-quinolin-5-yl)-5-trifluoromethyl-piperidin-3-yl]-2-(4,4-difluoro-cyclohexyl)-acetamide] gave an IC50 of less than 1000 nM. `C[C@H]1C[C@@H](NC(=O)CNC(C)(C)C)CN(c2ccc(C#N)c3nccnc23)C1` [Compound 142, 2-(tert-butylamino)-N-[(3R,5S)-1-(8-cyanoquinoxalin-5-yl)-5-methylpiperidin-3-yl]acetamide] was tested, and the IC50 was less than 1000 nM. Work on `CN1CCCC1C(=O)NCC1CCN(c2ccnc3nccnc23)CC1` (stereo not shown) [Compound 411, 1-Methyl-pyrrolidine-2-carboxylic acid (1-pyrido[2,3-b]pyrazin-8-yl-piperidin-4-ylmethyl)-amide] yielded an IC50 of 1000 to 10000 nM. With `C[C@H]1C[C@@H](NC(=O)CC(O)C(C)(C)C)CN(c2ccc(C#N)c3nccnc23)C1` (single isomer, unassigned) [Compound 147] the IC50 was less than 1000 nM. Compound `N#Cc1ccc(N2C[C@@H](NC(=O)CN3CCOCC3)C[C@@H](C(F)(F)F)C2)c2cccnc12` (racemic) [Compound 424, cis-N-[1-(8-Cyano-quinolin-5-yl)-5-trifluoromethyl-piperidin-3-yl]-2-morpholin-4-yl-acetamide] has an IC50 of 1000 to 10000 nM. With `C[C@H]1C[C@@H](NC(=O)C(C)(C)C2CCN(C)CC2)CN(c2ccc(C#N)c3nccnc23)C1` [Compound 349, N-[(3R,5S)-1-(8-cyanoquinoxalin-5-yl)-5-methylpiperidin-3-yl]-2-methyl-2-(1-methylpiperidin-4-yl)propanamide] the IC50 was less than 1000 nM. Work on `C[C@H]1C[C@@H](NC(=O)Cn2cccn2)CN(c2ccc(C#N)c3nccnc23)C1` [Compound 169, N-[(3R,5S)-1-(8-cyanoquinoxalin-5-yl)-5-methylpiperidin-3-yl]-2-(1H-pyrazol-1-yl)acetamide] yielded an IC50 of less than 1000 nM. `N#Cc1ccc(N2CCC(C(=O)NCCN3CCOCC3)CC2)c2cccnc12` [Compound 419, 1-(8-Cyano-quinolin-5-yl)-piperidine-4-carboxylic Acid (2-morpholin-4-yl-ethyl)-amide] was tested, and the IC50 was 1000 to 10000 nM. Work on `COc1ccc(N2C[C@@H](C)C[C@@H](N)C2)c2cccnc12` [Compound 187, (3R,5S)-1-(8-methoxyquinolin-5-yl)-5-methylpiperidin-3-amine] yielded an IC50 of less than 1000 nM. Work on `C[C@H]1C[C@@H](NC(=O)CC2C3CC2CN(C)C3)CN(c2ccc(C#N)c3nccnc23)C1` (single isomer, unassigned) [Compound 358] yielded an IC50 of less than 1000 nM. In the case of `CN(C)CC(=O)N[C@H]1C[C@@H](C2CC2)CN(c2ccc(C#N)c3nccnc23)C1` (relative stereo) [Compound 179, cis-N-[1-(8-cyanoquinoxalin-5-yl)-5-cyclopropylpiperidin-3-yl]-2-(dimethylamino)acetamide], the IC50 is reported as 1000 to 10000 nM. In the case of `C[C@H]1C[C@@H](NC2CCC(O)CC2)CN(c2ccc(C#N)c3nccnc23)C1` (single isomer, unassigned) [Compound 136], the IC50 is reported as less than 1000 nM. Work on `CN1CCN(CC(=O)N[C@@H]2C[C@H](F)CN(c3ccc(C#N)c4nccnc34)C2)CC1` [Compound 502, N-[(3R,5S)-1-(8-Cyano-quinoxalin-5-yl)-5-fluoro-piperidin-3-yl]-2-(4-methyl-piperazin-1-yl)-acetamide] yielded an IC50 of 1000 to 10000 nM. Compound `C[C@H]1C[C@@H](NC(=O)N2C[C@@H](F)[C@@H](F)C2)CN(c2ccc(C(F)(F)F)c3ncccc23)C1` [Compound 583, (3R,4S)-3,4-Difluoro-pyrrolidine-1-carboxylic Acid [(3R,5S)-5-methyl-1-(8-trifluoromethyl-quinolin-5-yl)-piperidin-3-yl]-amide] has an IC50 of 1000 to 10000 nM. `CC(C(=O)NC1CN(c2ccc(C#N)c3nccnc23)CC(F)(F)C1)N1CCC1` (single isomer, unassigned) [Compound 508] was tested, and the IC50 was 1000 to 10000 nM.
